Data reported in ChEMBL document CHEMBL1141269, “Pordamacrines A and B, alkaloids from Daphniphyllum macropodum” (2007).

Test system: Thoracic aorta
Assay: Vasorelaxant activity against norepinephrine-induced contraction in Wistar rat thoracic aorta at 100 uM
Assay type: functional
Design: scale not given: the % may be the effect or the level left

Row | Compound | Activity [%]
1 | COC(=O)[C@@H]1C[C@@]23C4=C(CCC5CN6C[C@@H](C)C(C=CC52CO)C63O)CC[C@@H]41 (some centres not stated) [PORDAMACRINE B] | 47.1
2 | COC(=O)[C@@H]1C[C@@]23C4=C(CCC5CN6C[C@@H](C)C(O)(C=CC52CO)C63O)CC[C@@H]41 (some centres not stated) [PORDAMACRINE A] | 50
